Results taken from ChEMBL document CHEMBL4765464, “Discovery of BMS-986144, a Third-Generation, Pan-Genotype NS3/4A Protease Inhibitor for the Treatment of Hepatitis C Virus Infection” (J Med Chem, 2020).
pEC50, pIC50: −log10 of the molar value.

Key:
[1] = Inhibition of recombinant full length NS3/4A protease in Hepatitis C virus subtype 1a replicon infected in human HuH7 cells preincubated for 3 days followed by substrate addition and measured after 2 hrs by renilla luciferase reporter gene assay; format: cell-based; conditions: Huh-7
[2] = AUC in dog at 3 mg/kg, po or 1 mg/kg, iv; format: ADME, organism-based, Canis lupus familiaris; set-up: dose 3 mg/kg; conditions: in vivo
[3] = Clearance in cynomolgus monkey at 3 mg/kg, po or 1 mg/kg, iv; format: ADME, organism-based, Macaca fascicularis; conditions: in vivo
[4] = Half-life in dog at 3 mg/kg, po or 1 mg/kg, iv; format: ADME, organism-based, Canis lupus familiaris; conditions: in vivo
[5] = Drug concentration in rat liver at 5 mg/kg, po measured upto 24 hrs; format: ADME, organism-based; conditions: read-out: Ct
[6] = Inhibition of recombinant full length NS3/4A protease in Hepatitis C virus subtype 2a replicon infected in human HuH7 cells preincubated for 3 days followed by substrate addition and measured after 2 hrs by renilla luciferase reporter gene assay; format: cell-based; conditions: Huh-7
[7] = Selectivity index, ratio of IC50 for inhibition of HCV 5a NS3/4A protease to IC50 for inhibition of HCV 5a NS3/4A protease preincubated for 45 mins in presence of compound
[8] = Inhibition of HCV 2b NS3/4A protease; set-up: species or system Hepatitis C virus subtype 2b
[9] = Selectivity index, ratio of IC50 for inhibition of HCV 2a NS3/4A protease to IC50 for inhibition of HCV 2a NS3/4A protease preincubated for 45 mins in presence of compound
[10] = Oral bioavailability in cynomolgus monkey at 3 mg/kg; format: ADME, organism-based, Macaca fascicularis; conditions: in vivo
[11] = Selectivity index, ratio of IC50 for inhibition of HCV 4a NS3/4A protease to IC50 for inhibition of HCV 4a NS3/4A protease preincubated for 45 mins in presence of compound
[12] = Inhibition of HCV 2b NS3/4A protease preincubated for 45 mins in presence of compound; set-up: species or system Hepatitis C virus subtype 2b
[13] = Selectivity index, ratio of IC50 for inhibition of HCV 2b NS3/4A protease to IC50 for inhibition of HCV 2b NS3/4A protease preincubated for 45 mins in presence of compound
Cytochrome P450 3A4 [14] = biological target: T1, Cytochrome P450 3A4 (Homo sapiens, UniProt P08684); test: Inhibition of human CYP3A4 in human pooled liver microsomes at 0.002 to 40 uM in presence of midazolam as substrate preincubated in presence of NADPH followed by addition of substrate by LC-MS/MS analysis; format: ADME; conditions: TDE = time-dependent effect, dose 0.002-40 µM, time <=30 min
T1 sequence (P08684 whole entry): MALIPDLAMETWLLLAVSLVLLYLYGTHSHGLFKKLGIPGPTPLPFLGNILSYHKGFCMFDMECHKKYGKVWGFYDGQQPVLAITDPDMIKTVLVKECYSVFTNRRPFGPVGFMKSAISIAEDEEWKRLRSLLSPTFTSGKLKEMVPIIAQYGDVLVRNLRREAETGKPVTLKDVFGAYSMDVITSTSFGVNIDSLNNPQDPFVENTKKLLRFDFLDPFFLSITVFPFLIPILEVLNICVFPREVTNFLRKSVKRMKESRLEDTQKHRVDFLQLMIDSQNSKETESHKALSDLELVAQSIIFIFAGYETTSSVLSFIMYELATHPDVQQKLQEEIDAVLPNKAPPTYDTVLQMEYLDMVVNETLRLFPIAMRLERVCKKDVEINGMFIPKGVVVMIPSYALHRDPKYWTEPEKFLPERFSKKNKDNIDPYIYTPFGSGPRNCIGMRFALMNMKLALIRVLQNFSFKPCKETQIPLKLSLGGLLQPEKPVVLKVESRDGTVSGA

[15] = Inhibition of HCV 3a NS3/4A protease preincubated for 45 mins in presence of compound; set-up: species or system Hepatitis C virus subtype 3a
[16] = Inhibition of HCV 4a NS3/4A protease; set-up: species or system Hepatitis C virus subtype 4a
[17] = Inhibition of recombinant full length NS3/4A R155K mutant protease in Hepatitis C virus subtype 1a replicon infected in human HuH7 cells preincubated for 3 days followed by substrate addition and measured after 2 hrs by renilla luciferase reporter gene assay; format: cell-based; conditions: Huh-7
[18] = Oral bioavailability in rat at 5 mg/kg; format: ADME, organism-based; conditions: in vivo
[19] = Drug concentration in dog plasma at 3 mg/kg, po measured upto 24 hrs; format: ADME, organism-based, Canis lupus familiaris; conditions: read-out: Ct
[20] = Inhibition of HCV 1a NS3/4A protease preincubated for 45 mins in presence of compound; set-up: species or system Hepatitis C virus subtype 1a
[21] = Inhibition of HCV 6a NS3/4A protease; set-up: species or system Hepatitis C virus subtype 6a
[22] = Inhibition of HCV 3a NS3/4A protease; set-up: species or system Hepatitis C virus subtype 3a
Cytochrome P450 3A4 [23] = biological target: T1, Cytochrome P450 3A4; test: Inhibition of human CYP3A4 in human pooled liver microsomes in presence of testosterone as substrate preincubated for 30 mins in presence of NADPH followed by addition of substrate by LC-MS/MS analysis; format: ADME
[24] = Half life in rat at 1 mg/kg, iv; format: ADME, organism-based; conditions: in vivo
[25] = Clearance in dog at 3 mg/kg, po or 1 mg/kg, iv; format: ADME, organism-based, Canis lupus familiaris; conditions: in vivo
[26] = Drug concentration in cynomolgus monkey plasma at 3 mg/kg, po measured upto 24 hrs; format: ADME, organism-based, Macaca fascicularis; conditions: read-out: Ct
[27] = Inhibition of recombinant full length NS3/4A D168V mutant protease in Hepatitis C virus subtype 1b replicon infected in human HuH7 cells preincubated for 3 days followed by substrate addition and measured after 2 hrs by renilla luciferase reporter gene assay; format: cell-based; conditions: Huh-7
Cytochrome P450 3A4 [28] = biological target: T1, Cytochrome P450 3A4; test: Inhibition of human CYP3A4 in human pooled liver microsomes at 0.002 to 40 uM in presence of testosterone as substrate preincubated in presence of NADPH followed by addition of substrate by LC-MS/MS analysis; format: ADME; conditions: TDE = time-dependent effect, dose 0.002-40 µM, time <=30 min
Cytochrome P450 3A4 [29] = biological target: T1, Cytochrome P450 3A4; test: Inhibition of human CYP3A4 in human pooled liver microsomes in presence of testosterone as substrate preincubated for 0 mins in presence of NADPH followed by addition of substrate by LC-MS/MS analysis; format: ADME
[30] = Clearance in rat at 1 mg/kg, iv; format: ADME, organism-based; conditions: in vivo
[31] = Inhibition of HCV 2a NS3/4A protease preincubated for 45 mins in presence of compound; set-up: species or system Hepatitis C virus subtype 2a
[32] = Selectivity index, ratio of IC50 for inhibition of HCV 1b NS3/4A protease to IC50 for inhibition of HCV 1b NS3/4A protease preincubated for 45 mins in presence of compound
[33] = Oral bioavailability in dog at 3 mg/kg; format: ADME, organism-based, Canis lupus familiaris; conditions: in vivo
[34] = Inhibition of HCV 1b NS3/4A protease; set-up: species or system Hepatitis C virus subtype 1b
[35] = Selectivity index, ratio of IC50 for inhibition of HCV 6a NS3/4A protease to IC50 for inhibition of HCV 6a NS3/4A protease preincubated for 45 mins in presence of compound
[36] = Half-life in rat at 5 mg/kg, po or 1 mg/kg, iv; format: ADME, organism-based; conditions: in vivo
[37] = Drug concentration in rat plasma at 5 mg/kg, po measured upto 24 hrs; format: ADME, organism-based; conditions: read-out: Ct
[38] = Inhibition of recombinant full length NS3/4A protease in Hepatitis C virus subtype 1b replicon infected in human HuH7 cells preincubated for 3 days followed by substrate addition and measured after 2 hrs by renilla luciferase reporter gene assay; format: cell-based; conditions: Huh-7
[39] = Inhibition of HCV 4a NS3/4A protease preincubated for 45 mins in presence of compound; set-up: species or system Hepatitis C virus subtype 4a
[40] = Cmax in rat at 5 mg/kg, po; format: ADME, organism-based; set-up: route oral, dose 5 mg/kg; conditions: in vivo
[41] = Clearance in rat at 5 mg/kg, po or 1 mg/kg, iv; format: ADME, organism-based; conditions: in vivo
[42] = Half-life in cynomolgus monkey at 3 mg/kg, po or 1 mg/kg, iv; format: ADME, organism-based, Macaca fascicularis; conditions: in vivo
[43] = Inhibition of HCV 1b NS3/4A protease preincubated for 45 mins in presence of compound; set-up: species or system Hepatitis C virus subtype 1b
[44] = Inhibition of HCV 5a NS3/4A protease; set-up: species or system Hepatitis C virus subtype 5a
[45] = Inhibition of HCV 1a NS3/4A protease; set-up: species or system Hepatitis C virus subtype 1a
[46] = Inhibition of HCV 6a NS3/4A protease preincubated for 45 mins in presence of compound; set-up: species or system Hepatitis C virus subtype 6a
[47] = AUC in cynomolgus monkey at 3 mg/kg, po or 1 mg/kg, iv; format: ADME, organism-based, Macaca fascicularis; set-up: dose 3 mg/kg; conditions: in vivo
[48] = Inhibition of HCV 2a NS3/4A protease; set-up: species or system Hepatitis C virus subtype 2a

CC[C@@H]1C[C@H](C)CC/C=C\[C@@H]2C[C@@]2(C(=O)NS(=O)(=O)C2(C)CC2)NC(=O)[C@@H]2C[C@@H](Oc3nccc4cc(OC)c(F)cc34)CN2C(=O)[C@H]1NC(=O)OC(C)(C)C(F)(F)F
pEC50 [1]: 8.55
AUC [2]: 81 µM·h
clearance [3]: 9.3 mL/min/kg
half-life [4]: 8.2 h
concentration at 24 h [5]: 5.83 µM
pEC50 [6]: 8.85
Selectivity Index [7]: 10
pIC50 [8]: 8.70
Selectivity Index [9]: 3.5
bioavailability [10]: 14%
Selectivity Index [11]: 9
pIC50 [12]: 9.05
Selectivity Index [13]: 2
inhibition (INH) (Cytochrome P450 3A4 [14]): Tde
pIC50 [15]: 8.12
pIC50 [16]: 9.05
pEC50 [17]: 7.96
bioavailability [18]: 50%
concentration at 24 h [19]: 0.838 µM
pIC50 [20]: 9.70
pIC50 [21]: 9.15
pIC50 [22]: 8.25
pIC50 (Cytochrome P450 3A4 [23]): 5.52
half-life [24]: 9.3 h
clearance [25]: 0.3 mL/min/kg
concentration at 24 h [26]: 0.001 µM
pEC50 [27]: 8.22
inhibition (INH) (Cytochrome P450 3A4 [28]): Tde
pIC50 (Cytochrome P450 3A4 [29]): < 4.40
clearance [30]: 0.3 mL/min/kg
pIC50 [31]: 9.70
Selectivity Index [32]: 6
bioavailability [33]: 87%
pIC50 [34]: 9.22
Selectivity Index [35]: 6
half-life [36]: 9.3 h
concentration at 24 h [37]: 3.85 µM
pEC50 [38]: 8.96
pIC50 [39]: 10.00
Cmax [40]: 12.1 µM
clearance [41]: 0.3 mL/min/kg
half-life [42]: 3 h
pIC50 [43]: 10.00
pIC50 [44]: 9.00
pIC50 [45]: 9.10
pIC50 [46]: 10.00
AUC [47]: 0.898 µM·h
pIC50 [48]: 9.15
